Values quoted from earlier work as cited in patent US10413528B2, “Methods to inhibit infection during wound healing with topical compositions including amino acids” (priority 2014, dated 2019).

Settings: not given

maximum solubility in water [mg/mL]	Structure (SMILES)
22.4	CC(C)C[C@H](N)C(=O)O [leucine]

Same assay, conditions: in water

Structure (SMILES)	maximum aqueous solubility [mg/mL]
CC(C)C[C@H](N)C(=O)O [leucine]	22.4
CSCC[C@H](N)C(=O)O [methionine]	53.7
NC(=O)CC[C@H](N)C(=O)O [glutamine]	35

Now from value to molecule:

maximum aqueous solubility [mg/mL]	Structure (SMILES)
166.5	C[C@H](N)C(=O)O [alanine]
41.6	N[C@@H](Cc1c[nH]cn1)C(=O)O [histidine]
85	CC(C)[C@H](N)C(=O)O [valine]
